Assays:
[1] = system: growth hormone (GH); assay: GRF test: GRF-induced plasma GH response (radioimmunoassay); assay type: in vivo, human; conditions: for GRF-induced GH response: GRF(1-44)NH2 100 mcg i.v. bolus
Description: The subjects were divided into three groups:
(a) controls (N =9): 5 females and 4 males (age =70.10±2.76 years; range =66-75);
(b) inpatients with early onset senile dementia of the Alzheimer type (EOSDAT) (N =10): 5 females and 5 males (age 65.00±3.31 years; range =57-69); and
(c) inpatients with late onset senile dementia of the Alzheimer type (LOSDAT) (N =10): 5 females and 5 males (age =75.70±3.77 years; range =70-82).
All the SDAT patients met the DSM-III criteria for primary degenerative dementia and rigorous diagnostic criteria for SDAT. […] In LOSDAT, the onset of the disease occurred after the age of 60. The degree of severity of the dementia was assessed with Hasegawa's Dementia Rating Scale (DRS) (Hasegawa K., Inoue K. "An investigation of dementia rating scale for the elderly." Seishinigaku 16:965-969, 1974), Folstein's Mini-Mental State (MMS) Test (Folstein M. F., Folstein S., McHugh P. "Mini-mental state: a practical method for grading the cognitive state of patients for the clinician." J. Psychiat. Res. 12:189-198, 1975) and a modified model of the Brief Cognitive Rating Scale (BCRS) and Functional Assessment Stages (FAST) of Reisberg (Reisberg B., Ferris S. H., De Leon M. J. "Senile dementia of the Alzheimer type: Diagnosis and differential diagnostic features with special reference to functional assessment staging." in: Traber J., Gispen W. H. (Ed). Senile dementia of the Alzheimer type. pp 18-37, Springer-Verlag, Berlin, 1985). Concomitant pathology other than SDAT was discarded under a careful screening of the subjects with CT Scan, EEG, ECG and complementary laboratory data. Current diagnosis or history of SDM-III major affective disorder or schizophrenia as well as history of endocrine disease were criteria for exclusion. All of the control subjects were free of psychiatric and endocrine illness. All subjects included had been drug-free for a minimum of 7 days before testing.
A 21-gauge indwelling venous needle with an attached three-way stopcook was inserted into the antecubital vein. Baseline blood samples for GH determination were collected immediately before testing. GRF(1-44)NH2was then injected as an intravenous bolus (100 mcg), and blood samples were obtained at 15, 30, 45, 60, 90 and 120 minutes after injection for determination of GH concentrations in plasma. The plasma GH levels were measured by radioimmunoassay using a commercial GH-RIA-Kit (Dainabot Co. Ltd. Tokyo). The intra- and inter-assay coefficients of variation were 6.9% and 10.6%, respectively.
The results were analyzed statistically by the Student's test, analysis of variance (ANOVA) and the Mann-Whitney test using a NEC PC-9801VM2 computer.

[2] = system: Male Wistar rats; assay: Locomotor activity in open field paradigm (OUCEM-86), i.c.v. injection; assay type: in vivo
Description: To clarify whether SS and GRF display at the central level the same antagonistic effect that they have at the pituitary level, the effects of these neuropeptides on several behavioral parameters have been studied using the OUCEM-86^TM (Osaka University Computerized Electronic Maze). The system is integrated by the following components: a Programmable Electronic Platform (PEP) (620×620 mm) equipped with 48 photo beam sensors (OPX-T30); a Programming Panel (PP) (Model BECM-0064) for paradigm stimulation; a Shock Generator Scrambler (SGS) (Model BSG-1065) to apply continuous or discontinuous electric current to the PEP; a Control Station (CS) (BEC 16-Bio Computer Control Station BCS-1105; Bio Medica, Ltd., Osaka) which processes inputs/outputs as an interface device to automatically computerize behavioral parameters; and a Computer System (NEC PC-9801 VM2) with 1 megabyte Random Access Memory (RAM) for data processing and experimental setting.
Male Wistar rats (175-200 g) (N =5-8 rats/group) received intracerebroventricular (i.c.v.) injections of GRF1-44 and SS-14 over a range of 0.1 to 10 mcg. Then the rats were studied in the OUCEM under two different paradigms (e.g., open field and maze paradigms).
The animals were placed in the PEP for 30-minute periods and locomotor activity (LA) was automatically recorded in an open field paradigm. Total LA is represented as total inputs (I/O) including movements in four-footed position (4F) and in two-footed position (2F), grooming, rearing and jumping activity, while linear (horizontal) movements (4F) are represented as pulses per minute (pm) or cm^2 /min

## growth hormone releasing factor [GRF]
[1]; CONTROL (females), 0 min (basal, before GRF(1-44)NH2 100 mcg i.v.)
  plasma GH: 1.03 ± 0.94 ng/mL
[1]; CONTROL (females), 15 min after GRF(1-44)NH2 100 mcg i.v.
  plasma GH: 3.09 ± 1.58 ng/mL
[1]; CONTROL (females), 30 min after GRF(1-44)NH2 100 mcg i.v.
  plasma GH: 3.68 ± 2.09 ng/mL
[1]; CONTROL (females), 45 min after GRF(1-44)NH2 100 mcg i.v.
  plasma GH: 4.28 ± 3.38 ng/mL
[1]; CONTROL (females), 60 min after GRF(1-44)NH2 100 mcg i.v.
  plasma GH: 2.97 ± 1.96 ng/mL
[1]; CONTROL (females), 90 min after GRF(1-44)NH2 100 mcg i.v.
  plasma GH: 2.04 ± 1.38 ng/mL
[1]; CONTROL (females), 120 min after GRF(1-44)NH2 100 mcg i.v.
  plasma GH: 1.10 ± 0.95 ng/mL
[1]; CONTROL (males), 0 min (basal, before GRF(1-44)NH2 100 mcg i.v.)
  plasma GH: 1.07 ± 0.92 ng/mL
[1]; CONTROL (males), 15 min after GRF(1-44)NH2 100 mcg i.v.
  plasma GH: 2.21 ± 1.87 ng/mL
[1]; CONTROL (males), 30 min after GRF(1-44)NH2 100 mcg i.v.
  plasma GH: 3.16 ± 2.76 ng/mL
[1]; CONTROL (males), 45 min after GRF(1-44)NH2 100 mcg i.v.
  plasma GH: 5.17 ± 3.46 ng/mL
[1]; CONTROL (males), 60 min after GRF(1-44)NH2 100 mcg i.v.
  plasma GH: 3.17 ± 2.61 ng/mL
[1]; CONTROL (males), 90 min after GRF(1-44)NH2 100 mcg i.v.
  plasma GH: 1.88 ± 1.87 ng/mL
[1]; CONTROL (males), 120 min after GRF(1-44)NH2 100 mcg i.v.
  plasma GH: 0.91 ± 0.87 ng/mL
[1]; EOSDAT
  delay of GH response relative to the small peak in control subjects: about 15 minutes
[1]; EOSDAT (females), 0 min (basal, before GRF(1-44)NH2 100 mcg i.v.)
  plasma GH: 1.92 ± 1.52 ng/mL
[1]; EOSDAT (females), 15 min after GRF(1-44)NH2 100 mcg i.v.
  plasma GH: 2.23 ± 1.90 ng/mL
[1]; EOSDAT (females), 30 min after GRF(1-44)NH2 100 mcg i.v.
  plasma GH: 6.26 ± 2.05 ng/mL
[1]; EOSDAT (females), 45 min after GRF(1-44)NH2 100 mcg i.v.
  plasma GH: 14.86 ± 3.57 ng/mL
[1]; EOSDAT (females), 60 min after GRF(1-44)NH2 100 mcg i.v.
  plasma GH: 19.74 ± 4.86 ng/mL
[1]; EOSDAT (females), 90 min after GRF(1-44)NH2 100 mcg i.v.
  plasma GH: 11.28 ± 5.72 ng/mL
[1]; EOSDAT (females), 120 min after GRF(1-44)NH2 100 mcg i.v.
  plasma GH: 5.09 ± 3.01 ng/mL
[1]; EOSDAT (males), 0 min (basal, before GRF(1-44)NH2 100 mcg i.v.)
  plasma GH: 1.99 ± 1.67 ng/mL
[1]; EOSDAT (males), 15 min after GRF(1-44)NH2 100 mcg i.v.
  plasma GH: 2.70 ± 1.92 ng/mL
[1]; EOSDAT (males), 30 min after GRF(1-44)NH2 100 mcg i.v.
  plasma GH: 5.49 ± 1.91 ng/mL
[1]; EOSDAT (males), 45 min after GRF(1-44)NH2 100 mcg i.v.
  plasma GH: 6.87 ± 2.84 ng/mL
[1]; EOSDAT (males), 60 min after GRF(1-44)NH2 100 mcg i.v.
  plasma GH: 11.52 ± 2.82 ng/mL
[1]; EOSDAT (males), 90 min after GRF(1-44)NH2 100 mcg i.v.
  plasma GH: 7.41 ng/mL
[1]; EOSDAT (males), 120 min after GRF(1-44)NH2 100 mcg i.v.
  plasma GH: 2.73 ± 1.71 ng/mL
[1]; EOSDAT females
  rise of plasma GH levels after GRF injection: 19.74 ± 4.86 ng·mL
[1]; EOSDAT males
  rise of plasma GH levels after GRF injection: 11.52 ± 2.82 ng/mL
[1]; EOSDAT responders
  rise of plasma GH levels after GRF injection, individual range: 5.5 to 28.75 ng/mL
[1]; EOSDAT, 60 minutes after GRF(1-44)NH2 100 mcg i.v. bolus
  maximum peak of plasma GH: 15.61 ± 5.71 ng/mL
[1]; LOSDAT (females), 0 min (basal, before GRF(1-44)NH2 100 mcg i.v.)
  plasma GH: 1.09 ± 1.01 ng/mL
[1]; LOSDAT (females), 15 min after GRF(1-44)NH2 100 mcg i.v.
  plasma GH: 2.04 ± 1.01 ng/mL
[1]; LOSDAT (females), 30 min after GRF(1-44)NH2 100 mcg i.v.
  plasma GH: 3.65 ± 2.35 ng/mL
[1]; LOSDAT (females), 45 min after GRF(1-44)NH2 100 mcg i.v.
  plasma GH: 4.68 ± 3.18 ng/mL
[1]; LOSDAT (females), 60 min after GRF(1-44)NH2 100 mcg i.v.
  plasma GH: 4.97 ± 3.86 ng/mL
[1]; LOSDAT (females), 90 min after GRF(1-44)NH2 100 mcg i.v.
  plasma GH: 4.04 ± 3.22 ng/mL
[1]; LOSDAT (females), 120 min after GRF(1-44)NH2 100 mcg i.v.
  plasma GH: 2.44 ± 2.05 ng/mL
[1]; LOSDAT (males), 0 min (basal, before GRF(1-44)NH2 100 mcg i.v.)
  plasma GH: 0.95 ± 0.98 ng/mL
[1]; LOSDAT (males), 15 min after GRF(1-44)NH2 100 mcg i.v.
  plasma GH: 2.13 ± 0.94 ng/mL
[1]; LOSDAT (males), 30 min after GRF(1-44)NH2 100 mcg i.v.
  plasma GH: 2.81 ± 1.90 ng/mL
[1]; LOSDAT (males), 45 min after GRF(1-44)NH2 100 mcg i.v.
  plasma GH: 3.61 ± 3.51 ng/mL
[1]; LOSDAT (males), 60 min after GRF(1-44)NH2 100 mcg i.v.
  plasma GH: 4.09 ± 2.56 ng/mL
[1]; LOSDAT (males), 90 min after GRF(1-44)NH2 100 mcg i.v.
  plasma GH: 3.08 ± 2.22 ng/mL
[1]; LOSDAT (males), 120 min after GRF(1-44)NH2 100 mcg i.v.
  plasma GH: 1.64 ± 0.82 ng/mL
[1]; LOSDAT
  GRF-induced GH response: absent
[1]; control subjects
  GRF-induced GH response: absent
[2]; 1 mcg i.c.v. (SS-14 / GRF1-44), 30-minute period, control 31.16±6.90 pm
  locomotor activity (LA), open field: 47.60±5.35 pm
[2]; GRF1-44 1 mcg i.c.v., control 1122±248 cm^2 /min
  locomotor activity (LA), open field: 1713.6±69.5 cm^2 /min
[2]; GRF 1 mcg i.c.v.
  qualitative behavioral change, open field: hyperkinetic syndrome characterized by compulsive, uncontrolled movements

Reference: patent US4939124A, “Treatment and diagnosis of dementia” (Laboratorios Serono S.A., priority 1988, dated 1990)
